Laboratory results: patent publication US7960392B2, “Nitrogen-containing heterocyclic compounds” (Asahi Kasei Pharma Corporation, priority 2008, dated 2011)
pIC50, pKi: −log10 of the molar value.

Assays:
[1] = target: T1, human EP1 receptor (Homo sapiens, UniProt P34995); experiment: Antagonist activity (SRE-Luciferase reporter activity) using cells expressing human EP1 receptor; type: cell-based; conditions: HEK293 cells stably expressing human EP1 receptor with SRE-Luciferase reporter; PGE2 final concentration 10 nM; 37° C. for 6 hours; read-out: IC50 value, antagonist activity measurement test using the cells expressing human EP1 receptor
T1 construct: expressed in transfected cells
T1 sequence (P34995 1-402): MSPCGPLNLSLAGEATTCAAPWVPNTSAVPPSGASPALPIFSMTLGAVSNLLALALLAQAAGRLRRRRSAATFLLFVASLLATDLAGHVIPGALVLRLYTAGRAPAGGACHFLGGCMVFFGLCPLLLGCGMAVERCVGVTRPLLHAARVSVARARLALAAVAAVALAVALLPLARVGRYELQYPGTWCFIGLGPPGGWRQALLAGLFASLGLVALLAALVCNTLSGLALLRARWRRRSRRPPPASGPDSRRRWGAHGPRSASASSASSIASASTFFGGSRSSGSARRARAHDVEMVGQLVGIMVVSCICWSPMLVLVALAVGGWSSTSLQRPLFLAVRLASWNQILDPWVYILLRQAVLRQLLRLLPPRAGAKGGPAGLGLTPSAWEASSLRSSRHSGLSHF
Protocol: (§1) Measurement of an Antagonist Activity by Using Cells Expressing Human EP1 Receptor
In order to investigate the EP1 receptor antagonist activity of the compounds of the present invention, a reporter activity was measured by using HEK293 cells in which human EP1 receptor has been stably expressed.
As a result of searching Refseq Database for prostaglandin E receptor, genetic information of human EP1 (NM_000955) receptor was obtained. Based on this sequence information, human EP1 receptor gene was cloned by PCR using human cDNA as a template and by other general method to give human EP1 receptor. Then, HEK293 in which the receptor is stably expressed was established, together with a reporter gene (SRE-Luciferase) in which serum responsible element (SRE) is added at the upstream region of firefly luciferase gene. The resulting cells were added to a 96 well plate (5×10^4 cells/well) and cultured for one day. To the plate, PGE2 (200 nM, final concentration 10 nM) and the test compound (in an amount of 1/20, 20× of the final concentration) were added to initiate the reaction. After allowing the reaction to proceed at 37° C. for 6 hours, the medium was aspirated off, added with a luminescent agent and the reporter activity was measured.

[2] = target: T1, human EP1 receptor; experiment: Antagonist activity (intracellular Ca2+ assay) using cells expressing human EP1 receptor; type: cell-based; conditions: HEK293 cells stably expressing human EP1 receptor; inhibition of increase in intracellular Ca2+ concentration by PGE2 (10 nM); Fura 2-AM
Protocol: as §1
In order to investigate the EP1 receptor antagonist activity of the compounds of the present invention, intracellular Ca^2+ was measured by using HEK293 cells in which human EP1 receptor has been stably expressed.
Cells expressing human EP1 receptor were suspended in an assay buffer to the concentration of 5×10^6 cells/ml, added with Puronic F-127 (final concentration 0.2%), and Fura 2-AM (final concentration 5 uM), followed by incubation at 37° C. for 30 minutes. After washing twice with the assay buffer, the cells were again suspended in the assay buffer to 1×10^6 cells/60 ul, and then transferred to a 96 well UV plate (1×10^6 cells/60 ul/well). Thereafter, by using a fluorescent chemical screening system (FDSS4000, Hamamatsu Photonics K.K.), intracellular Ca^2+ concentration was measured after adding 20 ul of each of the test compounds and PGE2 (5× of the final concentration for both). Ca^2+ concentration was measured by determining fluorescence intensity after irradiation with two excitation wavelengths, i.e., 340 and 380 nm.
Furthermore, EP1 antagonist activity was calculated as a ratio (%) of inhibiting increase in intracellular Ca^2+ concentration by PGE2 (10 nM).
Assay buffer: 20 mM HEPES/KOH (pH 7.4), 115 mM NaCl, 5.4 mM KCl, 0.8 mM MgCl2, 0.8 mM CaCl2, 13.8 mM D-glucose, 0.1% BSA

[3] = target: T1, human EP1 receptor; experiment: Receptor binding test ([3H]PGE2 binding inhibition) using cells expressing human EP1 receptor; conditions: membrane fraction of HEK293 cells stably expressing human EP1 receptor; [3H]PGE2 1 nM; 30° C. for 90 minutes; Ki=IC50/(1+[C]/Kd)
Protocol: Receptor Binding Test Using Cells Expressing Human EP1 Receptor
Inhibitory activity of the test compounds on binding of [^3H]PGE2 in HEK293 cells stably expressing human EP1 receptor was measured.
HEK293 cells which stably express human EP1 receptor were established by using the gene for human EP1 receptor, and then a membrane fraction was prepared therefrom. Thus-prepared membrane fraction was incubated at 30° C. for 90 minutes with a reaction solution (200 μL/well) which includes the test compound and [^3H]PGE2. Upon the completion of the reaction, the reaction solution was aspirated off under reduced pressure, and the [^3H]PGE2 bound to the membrane fraction was trapped by using Unifilter Plateg F/C (manufactured by Packard) and the bound radioactivity was counted with a liquid scintillator.
Kd value was obtained from a Scatchard plot. Non-specific binding was obtained from the binding in the presence of an excess amount (10 μM) of non-labeled PGE2. For the measurement of an inhibitory activity of the test compound on [^3H]PGE2 binding, [^3H]PGE2 (1 nM) and various concentrations of the test compound were added. Meanwhile, for all of the reactions, the buffer as described below was used.
Buffer;10 mM MES/NaOH (pH 6.0), 10 mM MgCl2, 1 mM EDTA, 0.1% BSA
Dissociation constant of the compounds, i.e., Ki, was obtained according to the following equation. […]

[4] = test system: female SD rat; experiment: Micturition interval prolongation in an anesthetized rat-II; type: in vivo; conditions: urethane-anesthetized female SD rat; 0.2% acetic acid in physiological saline infused to the bladder; administered to the left femoral vein
Protocol: Micturition Interval Prolongation in an Anesthetized Rat-II
Activity of prolonging micturition interval in an anesthetized rat was determined with reference to the method established by Maggi, et al. (Eur. J. Pharmacol. 145, p. 105-112 (1988)). Specifically, a female SD rat was anesthetized with urethane and fixed in a flat position, and a catheter was inserted through an external urethral opening. Using a three-way stop cock, it was connected to a pressure transducer and a syringe pump. While infusing physiological saline including 0.2% acetic acid to the bladder at constant rate, cystometrogram was recorded. After confirming stabilized micturition interval, micturition threshold pressure and maximal voiding pressure, a solvent or the compound to be tested was administered to the left femoral vein and an activity of prolonging micturition interval was determined as an efficacy of the drug compound. Each group included five animals.

[5] = test system: male SD rat; experiment: Micturition interval prolongation in an awaken rat-II; type: in vivo; conditions: cystitis induced by 0.3% acetic acid, intravenous administration, 60 minutes post- vs 30 minutes pre-administration
From the text: Micturition Interval Prolongation in an Awaken Rat-II As a test animal, a male SD rat (Charles River Corporation, Japan) was used. The rat was anesthetized by isofluran inhalation (nitrous oxide:oxygen=7:3), and being laid on its stomach, it remained anesthetized by 2% isofluran inhalation. Then, an incision was made at the center region of the abdomen, and the bladder was exposed. A small incision was made to the vertex region of the bladder, and a polyethylene tube (PE-50: Becton Dickinson) was inserted to the bladder and fixed. One end of a cannula was subcutaneously directed to the backside of the animal, and after fixing the cannula to the abdomen wall, the incision was sealed. The cannula directed to the backside was connected to a seibel and the middle region was protected with a stainless spring. […] Then, through one end of the tube that had been inserted to the bladder, physiological saline warmed to 37° C. was injected at the rate of 3.0 mL/hr using a three-way stop cock, while the other end was connected to a pressure transducer and cystometrogram was recorded continuously with pressure amplification. The discharged urine was collected in a vessel placed on a digital balance and change in the urine weight was measured at the same time. […]

pIC50 [1] | pIC50 [2] | SMILES | other results
6.00 to 6.52 |  | Cc1c(-c2ccccc2)nn(Cc2nc(C(=O)O)cs2)c1-c1ccccc1 [Exp. 14, 2-{(4-Methyl-3,5-diphenyl-1H-pyrazol-1-yl)methyl}thiazole-4-carboxylic acid] | 
6.52 to 7.00 | 5.52 to 6.00 | O=C(O)c1csc(-n2nc(-c3ccccc3O)cc2-c2ccccc2)n1 [Exp. 20] | 
≥ 7.00 | 6.00 to 6.52 | Cc1c(-c2ccccc2)nn(-c2nc(C(=O)O)cs2)c1-c1ccccc1 [Exp. 30] | pKi [3]: ≥ 6.52; Micturition interval prolonging activity [4]: 25.8%
≥ 7.00 | ≥ 6.52 | Nc1c(-c2ccccc2)nn(-c2nc(C(=O)O)cs2)c1-c1ccccc1 [Exp. 35] | pKi [3]: ≥ 6.52; micturition volume [5]: increase in micturition volume; prolongation in micturition interval [5]: at least 30%
≥ 7.00 | 6.00 to 6.52 | O=C(O)c1csc(-n2nc(-c3ccccc3)c(F)c2-c2ccccc2)n1 [Exp. 36] | 
≥ 7.00 | 6.00 to 6.52 | O=C(O)c1csc(-n2nc(-c3ccccc3)c(Cl)c2-c2ccccc2)n1 [Exp. 37] | 
≥ 7.00 | ≥ 6.52 | O=C(O)c1csc(-n2nc(-c3ccccc3)c(Br)c2-c2ccccc2)n1 [Exp. 38] | 
6.00 to 6.52 |  | COc1ccccc1-c1c(C)c(-c2ccccc2)nn1-c1nc(C(=O)O)cs1 [Exp. 42] | 
≥ 7.00 |  | Cc1c(-c2ccccc2)nn(-c2nc(C(=O)O)cs2)c1-c1cccc(F)c1 [Exp. 44] | 
6.52 to 7.00 |  | Cc1c(-c2ccccc2)nn(-c2nc(C(=O)O)cs2)c1-c1cccc(O)c1 [Exp. 48] | 
≥ 7.00 |  | Cc1c(-c2ccccc2)nn(-c2nc(C(=O)O)cs2)c1-c1ccc(F)cc1 [Exp. 54] | 
≥ 7.00 |  | Cc1c(-c2ccccc2)nn(-c2nc(C(=O)O)cs2)c1-c1cc(F)cc(F)c1 [Exp. 80] | 
6.52 to 7.00 |  | Cc1c(-c2ccccc2)nn(-c2nc(C(=O)O)cs2)c1-c1cc(F)ccc1F [Exp. 88] | 
6.52 to 7.00 |  | Cc1c(-c2ccccc2)nn(-c2nc(C(=O)O)cs2)c1-c1cc(F)c(F)c(F)c1 [Exp. 90] | 
6.52 to 7.00 |  | Cc1c(-c2ccccc2)nn(-c2nc(C(=O)O)cs2)c1-c1cccs1 [Exp. 91] | 
≥ 7.00 |  | Cc1c(-c2ccccc2)nn(-c2nc(C(=O)O)cs2)c1-c1ccsc1 [Exp. 92] | 
≥ 7.00 | 6.00 to 6.52 | Cc1c(-c2ccccc2)nn(-c2nc(C(=O)O)cs2)c1-c1ccco1 [Exp. 94] | 
≥ 7.00 | 6.00 to 6.52 | Cc1c(-c2ccccc2)nn(-c2nc(C(=O)O)cs2)c1-c1ccoc1 [Exp. 95] | 
≥ 7.00 |  | Cc1c(-c2ccccc2)nn(-c2nc(C(=O)O)cs2)c1-c1cccc2cccnc12 [Exp. 105] | 
≥ 7.00 | ≥ 6.52 | Cc1c(-c2ccccc2)nn(-c2nc(C(=O)O)cs2)c1C1=CCCCO1 [Exp. 111] | 
≥ 7.00 | ≥ 6.52 | O=C(O)c1csc(-n2nc(-c3ccccc3)c3c2-c2ccccc2C3)n1 [Exp. 114] | 
≥ 7.00 | ≥ 6.52 | O=C(O)c1csc(-n2nc3c(c2-c2ccccc2)CCc2ccccc2-3)n1 [Exp. 116] | 
≥ 7.00 |  | O=C(O)c1csc(-n2nc(-c3ccccc3)c3oc4ccccc4c32)n1 [Exp. 117] | 
6.00 to 6.52 |  | Cc1c(-c2ccccc2)nn(/C=C\c2nc(C(=O)O)cs2)c1-c1ccccc1 [Exp. 127] | 
6.52 to 7.00 |  | Cc1c(-c2ccccc2)nn(/C=C/c2nc(C(=O)O)cs2)c1-c1ccccc1 [Exp. 128] | 
